Consider two compounds from patent EP4656640A1, “IRAK4 DEGRADER AND USE THEREOF” (Shanghai Qilu Pharmaceutical Research and Development …, priority 2023, dated 2024).

Series [1] is described as follows: Mouse pharmacokinetics, oral (Experiment 2). It is filed as in vivo, C57BL/6 mice. The settings on record: mice, PO 100 mg/kg, free access to food, plasma. As to the method:
Two male C57BL/6 mice were allowed free access to food and water. The dose for PO administration was 100 mg/kg, with an administration volume of 10 mL/kg.
After administration, blood samples (0.025 mL) were collected from the mice via venipuncture at 0.083, 0.25, 0.5, 1, 2, 4, 8, and 24 hours. The samples were placed in EDTA-K2 tubes and centrifuged at 2000 g for 5 minutes at 4°C. The plasma was separated and stored at -70°C.
• 1) 5 µL of plasma sample was added to 100 µL of acetonitrile for precipitation. After mixing, the mixture was centrifuged at 5800 rmp for 10 minutes. • 2) The processed supernatant solution was taken for LCMS/MS analysis to determine the concentration of the test compound.
• LC-MS/MS instrument: LCMS/MS-45 (Triple Quad 6500+) • Chromatographic column: Waters BEH C18 (2.1 × 50 mm, 1.7 µm) • Mobile phase: Solution A was H2O-0.025% FA-1 mM NH4OAc, and Solution B was MeOH-0.025% FA-1 mM NH4OAc. • Flow rate: 0.6 mL/min • Elution time: Gradient elution for 0-2.5 minutes.
The main pharmacokinetic parameters were calculated using WinNonlin 8.2. […] Table 7. Pharmacokinetic parameters of some compounds of the present disclosure administered orally to mice

Series [2] can be described thus: Mouse pharmacokinetics, oral (Experiment 1). The settings on record: mice, PO 100 mg/kg, fasted overnight, plasma. The class given is in vivo, C57BL/6 mice. The protocol:
C57BL/6 mice were used as test animals to study the pharmacokinetic behavior of the compounds of the present disclosure in mouse plasma after oral administration at a dose of 100 mg/kg.
C57BL/6, male, transferred from the animal repository of the laboratory institution (999M-018).
Three male C57BL/6 mice were fasted overnight (10-14 hours) with free access to water one day before administration. The mice were fed 4 hours after administration. The dose for PO administration was 100 mg/kg, with an administration volume of 20 mL/kg.
After administration, blood samples (0.03 mL) were collected from the mice via venipuncture at 0.083, 0.25, 0.5, 1, 2, 4, 8, and 24 hours. The samples were placed in EDTA-K2 tubes and centrifuged at 6800 rpm for 5 minutes at 2-8°C. The plasma was separated and stored at -80°C.
• 1) 10 µL of plasma sample was added to 200 µL of methanol for precipitation. After mixing, the mixture was centrifuged at 18000 g for 10 minutes. • 2) The processed supernatant solution was taken for LC/MS/MS analysis to determine the concentration of the test compound.
• Liquid phase conditions: Shimadzu LC-30AD pump • Mass spectrometry conditions: AB Sciex API 5500 mass spectrometer • Chromatographic column: Phenomenex Kinetex 2.6 µm C18 50 3.0 mm • Mobile phase: Solution A was 0.1% formic acid in water, and solution B was 0.1% formic acid in acetonitrile • Flow rate: 0.6 mL/min • Elution time: Gradient elution for 0-1.6 minutes.
The main pharmacokinetic parameters were calculated using WinNonlin 8.0.

Structures are written as SMILES.

As to `Cn1c(=O)n(C2CCC(=O)NC2=O)c2cccc(C#CCOC34CCC(CN5CCC6(CC5)CC(n5cc(NC(=O)c7cnn8ccc(N9C[C@H]%10C[C@@H]9CO%10)nc78)c(C(F)F)n5)C6)(CC3)CC4)c21` (stereo partly drawn) [Example 52], in series [1], the area under the curve AUC(0-t) at 24 h is 40100 ng·h/mL, the Cmax was 2200 ng/mL and the Tmax is 8 h.
In series [2], `Cn1c(=O)n(C2CCC(=O)NC2=O)c2cccc(C#CCCN3CCC4(CC3)CC(n3cc(NC(=O)c5cnn6ccc(N7C[C@H]8C[C@@H]7CO8)nc56)c(C(F)F)n3)C4)c21` (stereo partly drawn) [Example 22] had an AUC(0-inf) of 18400 ng·h/mL, an AUC(0-t) at 24 h of 17600 ng·h/mL, a peak concentration (Cmax) of 1400 ng/mL and an MRT inf of 8 h. For the same compound, in series [2], the Tmax was 1.7 h and the half-life was 5.4 h.
